Measured values published in patent US12285464B2, “Therapeutic targets involved in the progression of nonalcoholic steatohepatitis (NASH)” (The Trustees of Columbia University in the City of New York, priority 2016, dated 2025).
“Also recorded” adds a separate entry of the source.

Key:
TAZ [1] = assay: shTaz in the MCD (methionine/choline-deficient) diet model; type: in vivo, mice
Excerpt: Thus, in separate models of NASH, hepatic TAZ silencing improved key liver parameters related to inflammation, fibrosis, and cell death without affecting metabolic parameters or steatosis.
(§1) Male wild-type mice C57BL/6J (#000664, 8-10 weeks/old) and MC4R-negative loxTB Mc4r mice (#006414, 6 weeks/old), referred to here as Mc4r^-/- mice, were obtained from Jackson Laboratory (Bar Harbor, ME) and were allowed to adapt to housing in the Columbia University Medical Center Institute of Comparative Medicine for 1 week prior to random assignment to experimental cohorts. The mice were then fed the following diets for the times indicated in the figure legends: (a) chow diet (Picolab rodent diet 20, #5053); (b) “fast-food” (FF). diet (TestDiet 1810060): high-fat diet with drinking water containing 42 g/L glucose and fructose (55%/45%, w/w); or (c) fructose-palmitate-cholesterol (“FPC”) diet (Teklad, TD.140154): similar to FF diet but with 1.25% added cholesterol and with palmitic acid, anhydrous milk fat, and Primex as the sources of fat and with a ˜60% decrease in vitamin E and a ˜35% decrease in choline compared with typical mouse diets. The detailed composition of these diets appear in Tables 1 and 2. For several experiments, groups of mice were placed on a methionine-choline-deficient diet (Teklad, TD. 90262) for 8 weeks, as described (Dixon et al., 2012). Adeno-associated virus (2×10^11 genome copy/mouse) was delivered by tail vein injection either 1 week prior to diet initiation or after 8 weeks of the FPC diet. Animals were housed in standard cages at 22° C. in a 12-12-h light-dark cycle. All animal experiments were performed in accordance with institutional guidelines and regulations and approved by the Institutional Animal Care and Use Committee at Columbia University.

TAZ [2] = assay: TAZ silencing with AAV8-shTaz in FPC-fed hyperphagic Mc4r-/- mice, 16 weeks; type: in vivo; details: FPC diet 16 wks
Method: (§2) To study TAZ function in NASH development, FPC mice were treated with AAV8-shTaz vs. AAV8-control RNA. […] Mouse body weight, liver:body weight ratio, fasting blood glucose, plasma insulin, and plasma cholesterol were similar in the Taz shRNA and control groups.
as §1
Formalin-fixed, paraffin-embedded liver sections were stained with hematoxylin and eosin (H&E) and evaluated for severity of NAFLD by a trained hepatopathologist blinded to the clinical diagnosis, αaccording to criteria described by Brunt et al. (Kleiner et al., 2005; Liang et al., 2014). Liver fibrosis was assessed by Picrosirius (Sirius) red (Polysciences, #24901) or by Masson's trichrome staining (Sigma, HT15), with aniline blue-positive areas quantified as a measure of collagen content in the trichrome-stained. sections. TUNEL staining was conducted using a kit from Roche (#12156792910). For immunofluorescence microscsopy, paraffin sections were rehydrated, subjected to antigen retrieval by placing in a pressure cooker for 10 mins in Target Retrieval Solution (Dako, S1699), and then blocked with serum. Sections were labeled with primary antibodies overnight, using a 1:150 dilution except for α-SMA and 4-HNE (1:200) and TAZ (1:400), followed by incubation with a fluorophore-conjugated secondary antibody for 1 h. The stained sections were mounted with DAPI-containing mounting medium (Life Technologies, P36935) and then viewed on an Olympus IX 70 fluorescence microscope. For filipin (Sigma, F9765) staining, frozen sections were fixed in 4% paraformaldehyde for 1 h at room temperature, then rinsed using glycine/PBS and stained 0.25 mg/ml filipin 2 h at room temperature. Fluorescence microscopic images were analyzed using ImageJ software. For immunohistochemistry, the deparaffinization, rehydration, and antigen retrieval processes were the same as with immunofluorescence staining. The slides were treated with 3% hydrogen peroxide for 10 min and then blocked with Serum-Free Protein Block (Dako, X0909) for 30 min. Sections were incubated with OPN, F4/80, or α-SMA primary antibody (1:100) overnight and then developed using DAB substrate kit (Cell Signaling, #8059) for OPN and F4/80,FITC-labeled anti-HRP secondary antibody for α-SMA.
Hydroxyproline liver content was measured as previously described (Bataller et al., 2003; Seki et al., 2009). […]

TAZ [3] = assay: TAZ silencing after development of steatosis: AAV8-shTaz at week 8 of 16 weeks of FPC diet; type: in vivo, mice; details: shTaz at week 8, read at 16 weeks of FPC diet
Excerpt: To investigate the role of TAZ specifically in steatosis-to-NASH conversion, mice were first fed the FPC diet for 8 weeks and then injected with AA8-shTaz or control virus, followed by an additional 8 weeks on the diet. Note that 8 weeks of FPC diet caused steatosis but no appreciable inflammation or fibrosis (FIG. 6A).
as §1

TAZ [4] = assay: TAZ silencing with AAV8-shTaz in FPC-fed C57BL/6J mice, FPC diet for 16 weeks; type: in vivo; details: FPC diet 16 weeks
Method: as §2
The following antibodies were used for immunoblots: GAPDH (#3683), β-actin (#5125), CHOP (#5554), TAZ (#8418), p-eIF2α (#3398), eIF2α (#5324), Lamin A/C (#4777) from Cell Signaling; p-TAZ (sc-17610) and Col1a1 (sc-8784) from Santa Cruz; Ihh (ab39634) from Abcam; and Timp1 (AF980) from R & D. The following antibodies were using for immunostaining of liver: α-SMA (ACTA2) (C6198, F3777) and TAZ (HPA007415) from Sigma; F4/80 (MCA497GA) from AbD Serotec; Ly6g (#127601) from Biolegend; Ly6b (MCA771G) from Bio-Rad; OPN (AF808) from R & D; 4-hydroxynonenal (4-HNE) (AB5605) from Millipore; and HNF4α (sc-6556) from. Santa Cruz. The following plasma assay kits were used in this study: insulin ELISA (#90080) from. Crystal Chem; MCP1 ELISA (#88-7391-22) from eBiosciences; cholesterol (#439-17501) and triglyceride (#465-09791, #461-09891) from Wako; and ALT (#006A-CR) and AST (#004A-CR) from BQ Kits, Inc. AAV8-shRNA targeting murine Taz was made by annealing complementary oligonucleotides (5′-CACCAcagcegaatctcgcaatgaatCTCGAGATTCATTGCGAG ATTCGGCTG-3′) (SEQ ID NO:1), which were then ligated into the pAAV-RSV-GFP-H1 vector, as described previously (Lisowski et al., 2014). The resultant constructs were amplified by the Salk Institute Gene Transfer, Targeting, and Therapeutics Core.
as §1
Fasting blood glucose was measured using a glucose meter (One Touch Ultra, Life-scan) in mice that were fasted for 4-5 h, with free access to water. Complete blood counts were obtained with the FORCYTE Veterinary Hematology Analyzer (Oxford Science, Inc.). Total plasma triglyceride and cholesterol were assayed using a commercially available kit from Wako. For insulin, MCP1, AST, ALT, TC, TG are measured following kit instruction by using plasma.
Formalin-fixed, paraffin-embedded liver sections were stained with hematoxylin and eosin (H&E) and evaluated for severity of NAFLD by a trained hepatopathologist blinded to the clinical diagnosis, αaccording to criteria described by Brunt et al. (Kleiner et al., 2005; Liang et al., 2014). […]

Substance: 5′-CACCAcagcegaatctcgcaatgaatCTCGAGATTCATTGCGAG ATTCGGCTG-3′ (DNA CACCACAGCCGAATCTCGCAATGAATCTCGAGATTCATTGCGAGATTCGGCTG; expressed or natural sequence) [AAV8-shTaz, AAV8-shRNA targeting murine Taz; annealed oligonucleotides ligated into the pAAV-RSV-GFP-H1 vector]
- hepatic fibrosis (TAZ [1]): decreased
- hepatic inflammation (TAZ [1]): decreased
- macrophages in the liver (TAZ [1]): reduced
- steatosis (TAZ [1]): without impacting
- α-SMA+ cells in the liver (TAZ [1]): reduced
- inflammatory and fibrotic gene expression (TAZ [1]; liver): reduced
- hydroxyproline content of liver (TAZ [2]): lower; also recorded: reduced
- liver inflammation (hepatic inflammatory cells) (TAZ [2]): decreased; also recorded: reduced
- plasma ALT (TAZ [2]): reduced
- staining for Sirius red (TAZ [2]; liver): decreased staining
- staining for aniline blue (TAZ [2]; liver): decreased staining
- staining for α-SMA (TAZ [2]; liver): decreased staining
- F4/80+ macrophages (TAZ [3]): marked reductions
- fibrosis endpoints (aniline blue- and Sirius red-positive areas) (TAZ [3]): marked reductions; also recorded: reduced
- inflammatory cells (TAZ [3]): marked reductions; also recorded: reduced
- inflammatory- and fibrosis-related genes (Tnfa, Mcp1, Tgfb1, Acta2 mRNA) (TAZ [3]): marked reductions; also recorded: reduced
- plasma ALT (TAZ [3]): marked reductions; also recorded: reduced
- α-SMA+ cells (TAZ [3]): marked reductions
- 4-HNE+ liver cells (TAZ [4]): decrease
- TUNEL+ liver cells (TAZ [4]): decrease
- inflammatory cell infiltration in liver sections (TAZ [4]): marked reductions
- plasma ALT (TAZ [4]): decreased
- steatosis (TAZ [4]): not affected
- hepatic Ihh protein (TAZ [4]; immunoblot): suppressed
- F4/80+ macrophages (TAZ [4]; liver): decreases
- expression of mRNAs related to fibrosis (Acta2, Timp1, Des, Col1a1, Col1a2, Col3a1, Vim) (TAZ [4]; liver): robust reduction
- expression of mRNAs related to hepatic inflammation (Tnfa, Mcp1, F4/80 (Adgre1)) (TAZ [4]; liver): robust reduction
- α-SMA+ cells (TAZ [4]; liver): decreases
- silencing of TAZ in liver (immunoblot) (TAZ [4]; vs AAV8-control RNA): robust silencing
- Mouse body weight (TAZ [4]; vs control group): similar
- fasting blood glucose (TAZ [4]; vs control group): similar
- liver:body weight ratio (TAZ [4]; vs control group): similar
- plasma cholesterol (TAZ [4]; vs control group): similar
- plasma insulin (TAZ [4]; vs control group): similar
- fibrosis endpoints in liver sections (TAZ [4]; aniline blue, Sirius red): marked reductions
